From ChEMBL document CHEMBL1156451 (J Biol Chem, 2007)
≈ marks a conversion by molar mass, not a printed value. Calls of active or inactive are those of the source. The rule behind the calls is not given here. Where a SMILES comes first, the peptide text is derived from it.

Columns and labels:
[1] = test system: HeLa; test: Cytotoxicity against human HeLa cells at 100 ug/ml after 24 hrs by MTT assay relative to control; type: functional
[2] = Toxicity in human erythrocytes assessed as hemolysis at 100 ug/ml; type: cell-based, Erythrocyte; settings: read-out: Activity
[3] = test system: Escherichia coli; test: Antibacterial activity against Escherichia coli ATCC 25922 after 24 hrs in Mueller-Hinton broth medium; type: functional
[4] = test system: Acinetobacter baumannii; test: Antibacterial activity against Acinetobacter baumannii ATCC 19606 after 24 hrs in Mueller-Hinton broth medium; type: functional
[5] = test system: Bordetella bronchiseptica; test: Antibacterial activity against Bordetella bronchiseptica CUN 11844-99 after 24 hrs in Mueller-Hinton broth medium; type: functional
[6] = test system: Brucella abortus; test: Antibacterial activity against Brucella abortus 9.49 (per-) after 48 hrs in Mueller-Hinton broth medium; type: functional
[7] = test system: Pseudomonas aeruginosa; test: Antibacterial activity against Pseudomonas aeruginosa CUN 4158-02 after 24 hrs in Mueller-Hinton broth medium; type: functional
[8] = test system: Staphylococcus aureus; test: Antibacterial activity against methicillin-resistant Staphylococcus aureus ATCC 43300 after 24 hrs in Mueller-Hinton broth medium; type: functional
[9] = test system: Brucella abortus; test: Antibacterial activity against Brucella abortus 9.19 (per-) after 24 hrs in Mueller-Hinton broth medium; type: functional
[10] = test system: Escherichia coli; test: Antibacterial activity against Escherichia coli K12 ATCC 23716 after 24 hrs in Mueller-Hinton broth medium; type: functional
[11] = test system: Escherichia coli; test: Antibacterial activity against Escherichia coli K12 ATCC 23716 in 10% Luria-Bertani medium/90% Hepes buffer at pH 7.0; type: functional

Molecule	Activity [1]	hemolysis at 100 ug/ml [2] [%]	MBC ([3]; ATCC 25922, 24 h) [µg/mL]	MIC ([3]; ATCC 25922, 24 h) [µg/mL]	MBC ([4]; ATCC 19606, 24 h) [µg/mL]	MIC ([4]; ATCC 19606, 24 h) [µg/mL]	MBC [5] [µg/mL]	MIC [5] [µg/mL]	MIC [6] [µg/mL]	MBC [7] [µg/mL]	MIC [7] [µg/mL]	MBC ([8]; ATCC 43300, 24 h) [µg/mL]	MIC ([8]; ATCC 43300, 24 h) [µg/mL]	MBC [9] [µg/mL]	MBC ([10]; K12, 24 h) [µg/mL]	MIC ([10]; K12, 24 h) [µg/mL]	MBC [11] [µg/mL]	MIC [11] [µg/mL]	also measured
CC[C@H](C)[C@H](N)C(=O)N[C@@H](CO)C(=O)N[C@@H](CCCCN)C(=O)N[C@@H](CCCNC(=N)N)C(=O)N[C@H](C(=O)N[C@@H](CC(C)C)C(=O)N[C@H](C(=O)NCC(=O)N[C@@H](CCCCN)C(=O)N[C@@H](CCCCN)C(=O)O)[C@@H](C)O)[C@@H](C)CC (H-ISKRILTGKK-OH)	inactive	< 5	> 256	> 256	> 256	> 256	> 256	> 256	> 64	> 256	> 256	> 256	> 256	> 256	> 256	> 256	> 200	> 200	
CC[C@H](C)[C@H](NC(=O)[C@H](CCCCN)NC(=O)[C@H](CCCCN)NC(=O)[C@H](CO)NC(=O)[C@@H](NC(=O)CNC(=O)[C@H](CC(C)C)NC(=O)[C@@H](NC(=O)[C@@H](N)CCCCN)[C@@H](C)CC)C(C)C)C(=O)N[C@@H](CCSC)C(=O)N[C@@H](CCCNC(=N)N)C(=O)N[C@@H](CCCNC(=N)N)C(=O)N[C@H](C(=O)N[C@@H](CO)C(=O)N[C@@H](CCCCN)C(=O)N[C@@H](CC(=O)O)C(=O)N[C@H](C(=O)N[C@@H](CC(C)C)C(=O)N[C@H](C(=O)NCC(=O)N[C@@H](CCCCN)C(=O)N[C@@H](CCCCN)C(N)=O)[C@@H](C)O)[C@@H](C)CC)[C@@H](C)CC (H-KILGVSKKIMRRISKDILTGKK-NH2)	inactive	< 5	32 (≈ 12.7 µM)	32 (≈ 12.7 µM)	16 (≈ 6.37 µM)	16 (≈ 6.37 µM)	2 (≈ 0.796 µM)	2 (≈ 0.796 µM)	16 (≈ 6.37 µM)	64 (≈ 25.5 µM)	32 (≈ 12.7 µM)	> 256	> 256	> 256	16 (≈ 6.37 µM)	16 (≈ 6.37 µM)	12.5 (≈ 4.98 µM)	6.25 (≈ 2.49 µM)	
CC[C@H](C)[C@H](NC(=O)[C@H](CCCNC(=N)N)NC(=O)[C@H](CCCCN)NC(=O)[C@H](CO)NC(=O)[C@@H](NC(=O)CNC(=O)[C@H](CC(C)C)NC(=O)[C@@H](NC(=O)[C@@H](N)CCCCN)[C@@H](C)CC)C(C)C)C(=O)N[C@@H](CC(C)C)C(=O)N[C@H](C(=O)NCC(=O)N[C@@H](CCCCN)C(=O)N[C@@H](CCCCN)C(N)=O)[C@@H](C)O (H-KILGVSKRILTGKK-NH2)	inactive	< 5	> 256	> 256	> 256	> 256	> 256	256 (≈ 166 µM)	> 128	> 256	> 256	> 256	> 256	> 12.8	> 256	256 (≈ 166 µM)	> 100	50 (≈ 32.5 µM)	
CC[C@H](C)[C@H](NC(=O)[C@H](CCCCN)NC(=O)[C@H](CCCCN)NC(=O)[C@H](CO)NC(=O)[C@@H](NC(=O)CNC(=O)[C@H](CCCNC(=N)N)NC(=O)[C@H](CC(C)C)NC(=O)[C@@H](NC(=O)[C@@H](N)CCCCN)[C@@H](C)CC)C(C)C)C(=O)N[C@@H](CCSC)C(=O)N[C@@H](CCCNC(=N)N)C(=O)N[C@@H](CCCNC(=N)N)C(=O)N[C@H](C(=O)N[C@@H](CC(C)C)C(=O)N[C@H](C(=O)NCC(=O)N[C@@H](CCCCN)C(=O)N[C@@H](CCCCN)C(N)=O)[C@@H](C)O)[C@@H](C)CC (H-KILRGVSKKIMRRILTGKK-NH2)	inactive	< 5	32 (≈ 14.4 µM)	32 (≈ 14.4 µM)	2 (≈ 0.899 µM)	2 (≈ 0.899 µM)	4 (≈ 1.8 µM)	4 (≈ 1.8 µM)	64 (≈ 28.8 µM)	32 (≈ 14.4 µM)	32 (≈ 14.4 µM)	> 256	> 256	128 (≈ 57.5 µM)	64 (≈ 28.8 µM)	64 (≈ 28.8 µM)	32 (≈ 14.4 µM)	16 (≈ 7.19 µM)	
CC[C@H](C)[C@H](NC(=O)[C@H](CCCCN)NC(=O)[C@H](CCCCN)NC(=O)[C@H](CO)NC(=O)[C@@H](NC(=O)CNC(=O)[C@H](CCCNC(=N)N)NC(=O)[C@H](CC(C)C)NC(=O)[C@@H](NC(=O)[C@@H](N)CCCCN)[C@@H](C)CC)C(C)C)C(=O)N[C@@H](CCSC)C(=O)N[C@@H](CCCNC(=N)N)C(=O)N[C@@H](CCCNC(=N)N)C(=O)N[C@H](C(=O)N[C@@H](CO)C(=O)N[C@@H](CCCCN)C(=O)N[C@@H](CC(=O)O)C(=O)N[C@H](C(=O)N[C@@H](CC(C)C)C(=O)N[C@H](C(=O)NCC(=O)N[C@@H](CCCCN)C(=O)N[C@@H](CCCCN)C(N)=O)[C@@H](C)O)[C@@H](C)CC)[C@@H](C)CC (H-KILRGVSKKIMRRISKDILTGKK-NH2)	inactive	< 5	64 (≈ 24 µM)	16 (≈ 6 µM)	8 (≈ 3 µM)	8 (≈ 3 µM)	1 (≈ 0.375 µM)	1 (≈ 0.375 µM)	4 (≈ 1.5 µM)	16 (≈ 6 µM)	16 (≈ 6 µM)	> 256	> 256	> 128	16 (≈ 6 µM)	16 (≈ 6 µM)	25 (≈ 9.37 µM)	12.5 (≈ 4.68 µM)	
CC[C@H](C)[C@H](NC(=O)[C@H](CCCCN)NC(=O)[C@H](CCCCN)NC(=O)[C@H](CO)NC(=O)[C@@H](NC(=O)CNC(=O)[C@H](CCCNC(=N)N)NC(=O)[C@H](CC(C)C)NC(=O)[C@@H](NC(=O)[C@@H](N)CCCCN)[C@@H](C)CC)C(C)C)C(=O)N[C@@H](CCSC)C(=O)N[C@@H](CCCNC(=N)N)C(=O)N[C@H](C(=O)N[C@@H](Cc1ccccc1)C(=O)N[C@@H](CC(C)C)C(=O)N[C@@H](CCCNC(=N)N)C(=O)N[C@@H](CCCNC(=N)N)C(N)=O)[C@@H](C)O (H-KILRGVSKKIMRTFLRR-NH2)	inactive	< 5	32 (≈ 15.2 µM)	32 (≈ 15.2 µM)	16 (≈ 7.61 µM)	8 (≈ 3.81 µM)	8 (≈ 3.81 µM)	8 (≈ 3.81 µM)	16 (≈ 7.61 µM)	128 (≈ 60.9 µM)	128 (≈ 60.9 µM)	128 (≈ 60.9 µM)	128 (≈ 60.9 µM)	64 (≈ 30.5 µM)	16 (≈ 7.61 µM)	8 (≈ 3.81 µM)	8 (≈ 3.81 µM)	4 (≈ 1.9 µM)	
CC[C@H](C)[C@H](NC(=O)[C@H](CCCNC(=N)N)NC(=O)[C@H](CCCCN)NC(=O)[C@H](CO)NC(=O)[C@@H](NC(=O)CNC(=O)[C@H](CCCNC(=N)N)NC(=O)[C@H](CC(C)C)NC(=O)[C@@H](NC(=O)[C@@H](N)CCCCN)[C@@H](C)CC)C(C)C)C(=O)N[C@@H](CC(C)C)C(=O)N[C@H](C(=O)NCC(=O)N[C@@H](CCCCN)C(=O)N[C@@H](CCCCN)C(N)=O)[C@@H](C)O (H-KILRGVSKRILTGKK-NH2)	inactive	< 5	> 256	> 256	> 128	> 128	> 64	> 64		128 (≈ 75.5 µM)	128 (≈ 75.5 µM)	> 256	> 256		> 128	> 128	100 (≈ 59 µM)	50 (≈ 29.5 µM)	
CC[C@H](C)[C@H](NC(=O)[C@H](CCCNC(=N)N)NC(=O)[C@H](CCCNC(=N)N)NC(=O)[C@H](CC(C)C)NC(=O)[C@H](Cc1ccccc1)NC(=O)[C@@H](NC(=O)[C@H](CCCNC(=N)N)NC(=O)[C@H](CCSC)NC(=O)[C@@H](NC(=O)[C@H](CCCCN)NC(=O)[C@H](CCCCN)NC(=O)[C@H](CO)NC(=O)[C@@H](NC(=O)[C@@H](N)CCCCN)[C@@H](C)CC)[C@@H](C)CC)[C@@H](C)O)C(=O)N[C@@H](CO)C(=O)N[C@@H](CCCCN)C(=O)N[C@@H](CC(=O)O)C(=O)N[C@H](C(=O)N[C@@H](CC(C)C)C(=O)N[C@H](C(=O)NCC(=O)N[C@@H](CCCCN)C(=O)N[C@@H](CCCCN)C(N)=O)[C@@H](C)O)[C@@H](C)CC (H-KISKKIMRTFLRRISKDILTGKK-NH2)	inactive	< 5	4 (≈ 1.45 µM)	4 (≈ 1.45 µM)	4 (≈ 1.45 µM)	4 (≈ 1.45 µM)	1 (≈ 0.362 µM)	1 (≈ 0.362 µM)	2 (≈ 0.725 µM)	4 (≈ 1.45 µM)	4 (≈ 1.45 µM)	> 256	> 256	64 (≈ 23.2 µM)	4 (≈ 1.45 µM)	4 (≈ 1.45 µM)	12.5 (≈ 4.53 µM)	12.5 (≈ 4.53 µM)	
CC[C@H](C)[C@H](NC(=O)[C@H](CCCNC(=N)N)NC(=O)[C@H](CCCCN)NC(=O)[C@H](CO)NC(=O)[C@@H](NC(=O)[C@@H](N)CCCCN)[C@@H](C)CC)C(=O)N[C@@H](CC(C)C)C(=O)N[C@H](C(=O)NCC(=O)N[C@@H](CCCCN)C(=O)N[C@@H](CCCCN)C(=O)O)[C@@H](C)O (H-KISKRILTGKK-OH)	inactive	< 5	> 256	> 256	> 256	> 256	> 256	> 256	> 256	> 256	> 256	> 256	> 256	> 256	> 256	> 256	> 200	200 (≈ 157 µM)	
POLYMYXIN B	inactive						0.5	0.5	0.25	0.25	0.25			0.5			3.2	2.4	MBC [3]: 0.5 µg/mL; MIC [3]: 0.5 µg/mL; MBC [4]: 0.5 µg/mL; MIC [4]: 0.5 µg/mL; MIC [8]: 32 µg/mL; MBC [10]: 0.125 µg/mL; MIC [10]: 0.125 µg/mL
